Format: cell-based
Source text: • II The following assay results were obtained in an in vitro assay to test for inhibition of Trypanosoma (T) and Plasmodium (P) species.

| Substance | Cytotoxicity MIC [mg/L] |
| --- | --- |
| PAMAM 4.0 EDA(NHCSNH-3,5 Ph [COOH]2)32 [BRI6195] | >100 |
| PAMAM 4.0 EDA(NHCSNH SaccharinNa)32 [BRI6157] | >100 |
| BHAlys31lys32(NHCSNHPhOP[O] [ONa]2)64 [BRI6181] | >100 |
